From ChEMBL document CHEMBL1123976, “Synthesis and pharmacological characterization of 1-phenyl-, 4-phenyl-, and 1-benzyl-1,2,3,4-tetrahydroisoquinolines as dopamine receptor ligands” (J Med Chem, 1988)

Key:
D(1A) dopamine receptor = D(1A) dopamine receptor (Rattus norvegicus, UniProt P18901)
D(2) dopamine receptor = D(2) dopamine receptor (Rattus norvegicus, UniProt P61169)
Description: Inhibition of [3H]spiperone binding to Dopamine receptor D2 at 0.02 nM

[1] = Inhibition of Dopamine-stimulated adenylate cyclase obtained from rat corpus striatum was determined by the conversion of [32P]ATP to [32P]-cAMP

Chain of D(1A) dopamine receptor (P18901 whole entry): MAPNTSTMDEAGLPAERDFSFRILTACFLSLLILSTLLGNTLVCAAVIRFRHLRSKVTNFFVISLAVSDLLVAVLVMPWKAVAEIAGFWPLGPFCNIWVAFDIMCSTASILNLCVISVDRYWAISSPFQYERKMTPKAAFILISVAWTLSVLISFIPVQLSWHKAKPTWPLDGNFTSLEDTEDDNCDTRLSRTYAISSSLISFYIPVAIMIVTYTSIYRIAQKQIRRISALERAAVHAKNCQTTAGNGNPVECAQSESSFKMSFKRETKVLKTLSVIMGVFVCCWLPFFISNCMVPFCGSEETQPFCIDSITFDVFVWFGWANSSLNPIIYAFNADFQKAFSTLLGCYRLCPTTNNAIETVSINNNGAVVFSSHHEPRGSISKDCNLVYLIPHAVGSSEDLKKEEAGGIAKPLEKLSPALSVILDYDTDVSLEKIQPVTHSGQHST
Chain of D(2) dopamine receptor (P61169 whole entry): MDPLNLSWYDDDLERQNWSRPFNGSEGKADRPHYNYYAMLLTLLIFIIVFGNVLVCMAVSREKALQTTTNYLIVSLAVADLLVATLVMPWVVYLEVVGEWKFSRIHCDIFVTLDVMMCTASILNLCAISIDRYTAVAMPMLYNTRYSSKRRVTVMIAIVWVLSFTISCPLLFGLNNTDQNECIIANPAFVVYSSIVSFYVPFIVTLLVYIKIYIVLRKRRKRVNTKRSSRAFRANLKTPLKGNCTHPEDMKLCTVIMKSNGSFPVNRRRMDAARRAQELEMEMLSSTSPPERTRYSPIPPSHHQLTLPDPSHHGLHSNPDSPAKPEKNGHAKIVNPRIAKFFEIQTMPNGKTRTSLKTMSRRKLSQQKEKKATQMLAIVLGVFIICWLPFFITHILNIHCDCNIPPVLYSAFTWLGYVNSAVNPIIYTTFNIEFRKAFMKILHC

| Ki (D(1A) dopamine receptor) [µM] | Ki (D(2) dopamine receptor) [µM] | Ki [1] [µM] | SMILES |
| --- | --- | --- | --- |
| 0.179 | 1.9 | – | CCCN1CCc2cc(Cl)c(O)cc2[C@@H]1c1ccccc1 |
| 0.14 | 3.75 | – | Oc1cc2c(cc1Cl)CCN[C@H]2c1ccccc1 |
| 0.0125 | 0.915 | 0.00898 | CN1CCc2cc(Cl)c(O)cc2C1c1ccccc1 (racemic) |
| 0.442 | 19.2 | – | CN1CCc2cc(Cl)c(O)cc2[C@H]1c1ccccc1 |
| 0.00235 | 0.676 | – | Oc1cc2c(cc1Cl)CCNCC2c1ccccc1 (stereo unspecified) |
| 0.0066 | 1.85 | – | CN1CCc2cc(Cl)c(O)cc2[C@@H]1c1ccccc1 |
| 0.743 | 26.3 | – | Oc1cc2c(cc1Cl)CCN[C@@H]2c1ccccc1 |
| 0.0532 | 0.287 | – | CN1CCc2cc(Cl)c(O)cc2C1Cc1ccccc1 (racemic) |

| SMILES | Ki (D(1A) dopamine receptor) [µM] | Ki (D(2) dopamine receptor) [µM] | Ki [1] [µM] |
| --- | --- | --- | --- |
| CN1Cc2cc(Cl)c(O)cc2C(c2ccccc2)C1 (racemic) | 0.174 | 0.522 | – |
| Oc1cc2c(cc1Cl)CNCC2c1ccccc1 (racemic) | 0.565 | 3.62 | – |
